Measured values as given in ChEMBL document CHEMBL4251601 (Eur J Med Chem, 2018).

Experiments:
[1] = molecular target: Cyclin-dependent kinase 4/cyclin D1 (Homo sapiens, UniProt P11802); assay: Inhibition of CDK4/Cyclin-D1 (unknown origin) using histone-H1 as substrate after 90 mins by ADP-Glo assay; type: protein-complex assay
[2] = molecular target: CDK6/cyclin D3 (Homo sapiens) (UniProt P30281+Q00534); assay: Inhibition of recombinant full length human GST-tagged […] expressed in baculovirus expression system at 0.1 uM by TR-FRET assay relative to control
[3] = molecular target: CDK8/Cyclin C (Homo sapiens) (UniProt P49336+P24863); assay: Inhibition of recombinant full length human His-tagged CDK8/Cyclin-C expressed in baculovirus expression system at 0.1 uM by LanthaScreen assay relative to control
[4] = molecular target: ALK tyrosine kinase receptor (Homo sapiens) (UniProt Q9UM73); assay: Inhibition of recombinant N-terminal GST-tagged human ALK cytoplasmic domain (1058 to 1620 residues) expressed in baculovirus expression system at 0.1 uM by TR-FRET assay relative to control
Chain of ALK tyrosine kinase receptor (Homo sapiens) (Q9UM73 19-1620 limits assumed): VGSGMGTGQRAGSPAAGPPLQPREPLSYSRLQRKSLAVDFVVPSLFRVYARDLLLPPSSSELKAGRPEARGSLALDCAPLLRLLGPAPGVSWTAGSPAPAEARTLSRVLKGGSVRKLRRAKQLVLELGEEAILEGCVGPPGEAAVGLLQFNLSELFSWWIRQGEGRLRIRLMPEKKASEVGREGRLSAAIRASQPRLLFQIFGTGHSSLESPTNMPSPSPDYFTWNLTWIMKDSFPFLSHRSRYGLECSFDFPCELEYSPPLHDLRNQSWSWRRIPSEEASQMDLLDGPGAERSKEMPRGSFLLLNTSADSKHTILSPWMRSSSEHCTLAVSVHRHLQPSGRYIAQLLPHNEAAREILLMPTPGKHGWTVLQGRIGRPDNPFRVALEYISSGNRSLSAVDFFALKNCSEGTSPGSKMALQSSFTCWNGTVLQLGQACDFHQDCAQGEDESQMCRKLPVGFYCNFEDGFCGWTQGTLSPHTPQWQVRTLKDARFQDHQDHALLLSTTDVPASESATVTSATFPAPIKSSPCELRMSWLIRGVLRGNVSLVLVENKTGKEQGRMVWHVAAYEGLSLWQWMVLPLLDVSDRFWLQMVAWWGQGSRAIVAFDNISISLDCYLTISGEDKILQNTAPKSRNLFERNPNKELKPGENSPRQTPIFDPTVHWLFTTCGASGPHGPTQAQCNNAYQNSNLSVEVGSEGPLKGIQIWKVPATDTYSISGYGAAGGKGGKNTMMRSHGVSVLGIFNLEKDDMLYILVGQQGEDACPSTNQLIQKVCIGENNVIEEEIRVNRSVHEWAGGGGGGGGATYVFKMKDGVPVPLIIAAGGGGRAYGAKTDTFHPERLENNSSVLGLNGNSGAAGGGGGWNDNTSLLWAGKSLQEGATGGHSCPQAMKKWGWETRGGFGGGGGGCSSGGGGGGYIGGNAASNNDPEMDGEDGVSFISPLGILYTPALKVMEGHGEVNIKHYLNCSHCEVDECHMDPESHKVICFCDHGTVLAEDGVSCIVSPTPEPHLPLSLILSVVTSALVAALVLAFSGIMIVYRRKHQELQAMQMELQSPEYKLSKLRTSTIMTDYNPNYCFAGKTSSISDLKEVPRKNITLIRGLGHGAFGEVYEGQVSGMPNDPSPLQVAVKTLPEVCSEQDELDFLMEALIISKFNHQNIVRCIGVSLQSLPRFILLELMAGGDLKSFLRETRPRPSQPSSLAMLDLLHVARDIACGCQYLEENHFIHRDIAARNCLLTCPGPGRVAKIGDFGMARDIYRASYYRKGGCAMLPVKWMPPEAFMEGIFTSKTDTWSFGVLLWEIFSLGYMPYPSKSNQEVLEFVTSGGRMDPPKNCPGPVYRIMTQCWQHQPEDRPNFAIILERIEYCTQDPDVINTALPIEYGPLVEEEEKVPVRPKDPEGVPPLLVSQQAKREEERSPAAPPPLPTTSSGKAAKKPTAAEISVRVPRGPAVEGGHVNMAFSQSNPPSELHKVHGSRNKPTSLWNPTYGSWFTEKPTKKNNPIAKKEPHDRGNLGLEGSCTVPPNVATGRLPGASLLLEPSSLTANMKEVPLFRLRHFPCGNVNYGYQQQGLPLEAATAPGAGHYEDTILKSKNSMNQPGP

[5] = molecular target: Aurora kinase A (Homo sapiens) (UniProt O14965); assay: Inhibition of recombinant full length human His-tagged AURKA expressed in baculovirus expression system at 0.1 uM by Z'-Lyte assay relative to control
[6] = molecular target: Aurora kinase B (Homo sapiens) (UniProt Q96GD4); assay: Inhibition of recombinant full length human His-tagged AURKB expressed in baculovirus expression system at 0.1 uM by Z'-Lyte assay relative to control
[7] = molecular target: Tyrosine-protein kinase receptor UFO (Homo sapiens) (UniProt P30530); assay: Inhibition of recombinant human N-terminal GST tagged AXL (473-end residues) expressed in baculovirus infected Sf9 cells at 0.1 uM by Z'-Lyte assay relative to control
Chain of Tyrosine-protein kinase receptor UFO (Homo sapiens) (P30530 whole entry): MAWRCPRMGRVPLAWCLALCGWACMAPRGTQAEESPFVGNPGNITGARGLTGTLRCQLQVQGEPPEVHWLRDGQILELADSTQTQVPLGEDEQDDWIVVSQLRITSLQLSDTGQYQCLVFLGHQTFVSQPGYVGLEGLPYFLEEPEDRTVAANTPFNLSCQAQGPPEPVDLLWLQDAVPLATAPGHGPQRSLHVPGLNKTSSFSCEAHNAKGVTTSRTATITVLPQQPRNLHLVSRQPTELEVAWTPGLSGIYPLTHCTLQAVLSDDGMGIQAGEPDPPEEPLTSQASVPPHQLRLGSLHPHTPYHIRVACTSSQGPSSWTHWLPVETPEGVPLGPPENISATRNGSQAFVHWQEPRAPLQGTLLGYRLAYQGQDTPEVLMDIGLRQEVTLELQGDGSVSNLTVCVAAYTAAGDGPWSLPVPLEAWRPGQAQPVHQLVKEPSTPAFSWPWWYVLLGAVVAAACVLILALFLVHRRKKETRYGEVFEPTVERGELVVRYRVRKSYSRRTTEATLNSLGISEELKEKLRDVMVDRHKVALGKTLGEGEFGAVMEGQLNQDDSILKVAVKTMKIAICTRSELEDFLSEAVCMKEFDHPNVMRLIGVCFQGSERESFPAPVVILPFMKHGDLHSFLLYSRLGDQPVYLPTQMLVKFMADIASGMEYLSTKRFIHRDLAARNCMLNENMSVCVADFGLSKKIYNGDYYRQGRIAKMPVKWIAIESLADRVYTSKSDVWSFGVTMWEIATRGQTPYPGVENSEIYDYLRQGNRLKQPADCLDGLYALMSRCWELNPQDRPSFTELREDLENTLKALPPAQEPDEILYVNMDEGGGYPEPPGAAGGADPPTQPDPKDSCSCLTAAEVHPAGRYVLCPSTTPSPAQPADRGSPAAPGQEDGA

[8] = molecular target: Cytoplasmic tyrosine-protein kinase BMX (Homo sapiens) (UniProt P51813); assay: Inhibition of recombinant full length human His-tagged BMX expressed in baculovirus expression system at 0.1 uM by TR-FRET assay relative to control
[9] = molecular target: Fibroblast growth factor receptor 1 (Homo sapiens) (UniProt P11362); assay: Inhibition of recombinant human His-tagged FGFR1 cytoplasmic domain expressed in baculovirus expression system at 0.1 uM by Z'-Lyte assay relative to control
[10] = molecular target: G protein-coupled receptor kinase 4 (Homo sapiens) (UniProt P32298); assay: Inhibition of recombinant human full length GST-tagged GRK4 expressed in baculovirus expression system at 0.1 uM by Z'-Lyte assay relative to control
Chain of G protein-coupled receptor kinase 4 (Homo sapiens) (P32298 whole entry, looked up): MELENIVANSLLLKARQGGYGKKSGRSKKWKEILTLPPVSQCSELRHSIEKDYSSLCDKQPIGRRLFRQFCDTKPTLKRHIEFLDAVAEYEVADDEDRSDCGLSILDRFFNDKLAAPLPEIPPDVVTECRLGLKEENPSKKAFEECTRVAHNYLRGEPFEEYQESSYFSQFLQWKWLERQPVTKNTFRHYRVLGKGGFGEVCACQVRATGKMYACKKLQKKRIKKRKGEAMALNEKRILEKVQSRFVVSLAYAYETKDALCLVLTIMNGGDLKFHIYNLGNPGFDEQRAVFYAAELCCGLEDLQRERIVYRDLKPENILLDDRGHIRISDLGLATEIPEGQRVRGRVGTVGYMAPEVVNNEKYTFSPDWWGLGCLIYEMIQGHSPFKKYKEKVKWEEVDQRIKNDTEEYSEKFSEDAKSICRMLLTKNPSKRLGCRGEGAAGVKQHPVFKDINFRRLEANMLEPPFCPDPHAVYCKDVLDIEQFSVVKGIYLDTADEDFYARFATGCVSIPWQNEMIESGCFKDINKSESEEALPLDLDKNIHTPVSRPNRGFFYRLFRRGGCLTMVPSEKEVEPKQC

[11] = molecular target: Glycogen synthase kinase-3 beta (Homo sapiens) (UniProt P49841); assay: Inhibition of recombinant human full length His-tagged GSK3beta expressed in baculovirus expression system at 0.1 uM by Z'-Lyte assay relative to control
Chain of Glycogen synthase kinase-3 beta (Homo sapiens) (P49841 whole entry, looked up, the tested form may be a part): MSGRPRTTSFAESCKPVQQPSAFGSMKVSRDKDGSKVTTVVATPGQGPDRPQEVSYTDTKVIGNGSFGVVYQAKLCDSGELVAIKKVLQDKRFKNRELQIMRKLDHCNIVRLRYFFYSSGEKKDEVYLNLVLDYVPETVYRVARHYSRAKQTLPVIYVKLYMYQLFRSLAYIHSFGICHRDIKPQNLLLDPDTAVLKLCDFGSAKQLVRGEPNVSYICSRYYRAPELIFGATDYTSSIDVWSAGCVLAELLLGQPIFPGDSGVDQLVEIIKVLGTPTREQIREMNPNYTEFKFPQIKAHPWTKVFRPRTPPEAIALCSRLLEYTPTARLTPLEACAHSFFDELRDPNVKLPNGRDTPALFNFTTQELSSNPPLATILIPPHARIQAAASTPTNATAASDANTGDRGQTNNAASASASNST

[12] = molecular target: Vascular endothelial growth factor receptor 2 (Homo sapiens) (UniProt P35968); assay: Inhibition of recombinant human His-tagged KDR cytoplasmic domain expressed in baculovirus expression system at 0.1 uM by Z'-Lyte assay relative to control
Chain of Vascular endothelial growth factor receptor 2 (Homo sapiens) (P35968 whole entry, the tested form may be a part): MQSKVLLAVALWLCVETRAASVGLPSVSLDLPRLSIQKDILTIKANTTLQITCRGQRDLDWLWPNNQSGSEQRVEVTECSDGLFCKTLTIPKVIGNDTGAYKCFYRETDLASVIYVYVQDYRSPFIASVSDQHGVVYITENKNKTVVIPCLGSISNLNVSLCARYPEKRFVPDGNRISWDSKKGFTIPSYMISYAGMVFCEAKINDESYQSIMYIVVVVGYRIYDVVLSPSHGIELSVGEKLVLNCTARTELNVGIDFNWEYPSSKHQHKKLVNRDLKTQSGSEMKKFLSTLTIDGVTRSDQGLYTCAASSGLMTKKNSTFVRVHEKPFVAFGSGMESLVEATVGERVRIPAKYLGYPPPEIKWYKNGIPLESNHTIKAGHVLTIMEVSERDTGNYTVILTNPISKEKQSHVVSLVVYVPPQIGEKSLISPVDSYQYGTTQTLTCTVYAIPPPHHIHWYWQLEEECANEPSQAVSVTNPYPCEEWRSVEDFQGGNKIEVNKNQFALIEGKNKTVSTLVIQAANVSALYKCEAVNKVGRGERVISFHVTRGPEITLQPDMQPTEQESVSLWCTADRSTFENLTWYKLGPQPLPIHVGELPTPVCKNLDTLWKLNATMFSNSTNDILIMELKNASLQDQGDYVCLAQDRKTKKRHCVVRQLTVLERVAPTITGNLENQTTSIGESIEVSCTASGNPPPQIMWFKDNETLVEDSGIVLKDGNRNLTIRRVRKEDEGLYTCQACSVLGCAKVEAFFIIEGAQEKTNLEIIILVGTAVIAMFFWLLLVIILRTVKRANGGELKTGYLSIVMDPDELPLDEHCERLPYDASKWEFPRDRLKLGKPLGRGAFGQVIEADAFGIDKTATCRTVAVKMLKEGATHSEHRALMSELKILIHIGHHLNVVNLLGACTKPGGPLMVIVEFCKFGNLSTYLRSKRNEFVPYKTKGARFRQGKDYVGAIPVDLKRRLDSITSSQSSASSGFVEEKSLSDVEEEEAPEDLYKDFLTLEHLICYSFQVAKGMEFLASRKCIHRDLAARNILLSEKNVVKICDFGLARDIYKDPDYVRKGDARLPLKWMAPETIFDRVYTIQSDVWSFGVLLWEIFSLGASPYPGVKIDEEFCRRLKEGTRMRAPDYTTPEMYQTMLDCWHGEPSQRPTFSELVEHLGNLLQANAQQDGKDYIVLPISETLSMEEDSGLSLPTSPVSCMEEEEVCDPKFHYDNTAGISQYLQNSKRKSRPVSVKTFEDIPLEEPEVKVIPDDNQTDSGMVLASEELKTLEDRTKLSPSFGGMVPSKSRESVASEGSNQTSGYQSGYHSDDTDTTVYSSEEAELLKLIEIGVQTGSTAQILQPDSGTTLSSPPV

[13] = molecular target: Serine/threonine-protein kinase MARK1 (Homo sapiens) (UniProt Q9P0L2); assay: Inhibition of recombinant human full length GST-tagged MARK1 expressed in baculovirus expression system at 0.1 uM by Z'-Lyte assay relative to control
[14] = molecular target: Serine/threonine-protein kinase TAO2 (Homo sapiens) (UniProt Q9UL54); assay: Inhibition of recombinant human GST-tagged TAOK2 expressed in baculovirus expression system at 0.1 uM by Z'-Lyte assay relative to control
[15] = molecular target: Cyclin-dependent kinase 4/cyclin D1 (Homo sapiens) (UniProt P11802+P24385); assay: Inhibition of recombinant full length human GST-tagged CDK4/Cyclin-D1 expressed in baculovirus expression system at 1 uM by TR-FRET assay relative to control
[16] = molecular target: ALK tyrosine kinase receptor (Homo sapiens) (UniProt Q9UM73); assay: Inhibition of recombinant N-terminal GST-tagged human ALK cytoplasmic domain (1058 to 1620 residues) expressed in baculovirus expression system at 1 uM by TR-FRET assay relative to control
[17] = molecular target: Tyrosine-protein kinase BTK (Homo sapiens) (UniProt Q06187); assay: Inhibition of recombinant full length human His-tagged BTK expressed in baculovirus expression system at 1 uM by TR-FRET assay relative to control
[18] = molecular target: Serine/threonine-protein kinase Chk2 (Homo sapiens) (UniProt O96017); assay: Inhibition of recombinant full length human His-tagged CHEK2 expressed in baculovirus expression system at 1 uM by Z'-Lyte assay relative to control
[19] = molecular target: Casein kinase II subunit alpha (Homo sapiens) (UniProt P68400); assay: Inhibition of recombinant full length human His-tagged CK2alpha1 expressed in baculovirus expression system at 1 uM by Z'-Lyte assay relative to control
[20] = molecular target: G protein-coupled receptor kinase 3 (Homo sapiens) (UniProt P35626); assay: Inhibition of recombinant human full length GST-tagged GRK3 expressed in baculovirus expression system at 1 uM by Z'-Lyte assay relative to control
[21] = molecular target: Serine/threonine-protein kinase 10 (Homo sapiens) (UniProt O94804); assay: Inhibition of LOK1 (unknown origin) at 1 uM by Z'-Lyte assay relative to control
[22] = molecular target: Tyrosine-protein kinase Mer (Homo sapiens) (UniProt Q12866); assay: Inhibition of recombinant human GST-tagged MERTK (578 to 872 residues) expressed in baculovirus expression system at 1 uM by Z'-Lyte assay relative to control
[23] = molecular target: Misshapen-like kinase 1 (Homo sapiens) (UniProt Q8N4C8); assay: Inhibition of recombinant human GST-tagged MINK (1 to 320 residues) expressed in baculovirus expression system at 1 uM by Z'-Lyte assay relative to control
[24] = molecular target: PI3-kinase p110-alpha/p85-alpha (Homo sapiens) (UniProt P27986+P42336); assay: Inhibition of recombinant full-length human N-terminal His6-tagged p110alpha/p85alpha expressed in baculovirus infected Sf21 cells at 1 uM by ADP-Glo assay relative to control
[25] = molecular target: Protein-tyrosine kinase 6 (Homo sapiens) (UniProt Q13882); assay: Inhibition of recombinant human full length His-tagged PTK6 expressed in baculovirus expression system at 1 uM by TR-FRET assay relative to control
[26] = test system: U-87 MG; assay: Antiproliferative activity against human U87MG cells after 72 hrs by DAPI staining based assay; type: functional, cell-based, U-87MG ATCC
[27] = Unbound AUC (0 to 24 hrs) in CD-1 mouse brain at 10 mg/kg, po administered as single dose by LC-MS/MS analysis; type: ADME, organism-based; conditions: in vivo
[28] = test system: U-87 MG; assay: Antitumor activity against luciferase-fused human U87MG cells orthotopically xenografted in nude mouse assessed as increase in mouse life span at 12.5 mg/kg, po qd for 5 weeks relative to control; type: functional, U-87MG ATCC; conditions: 840 h
[29] = test system: U-87 MG; assay: Antitumor activity against luciferase-fused human U87MG cells orthotopically xenografted in nude mouse assessed as increase in mouse life span at 25 mg/kg, po qd for 5 weeks relative to control; type: functional, U-87MG ATCC; conditions: 840 h
[30] = test system: Mitogen-activated protein kinase kinase kinase 7; assay: Inhibition of TAK1 (unknown origin) at 0.1 uM by TR-FRET assay relative to control; conditions: Homo sapiens

For `CC1=Nc2c(F)cc(-c3nc(Nc4ccc(C5CCN(C)CC5)cn4)ncc3F)cc2C12CCCC2` [CROZBACICLIB], the IC50 [1] was 3 nM, the inhibition [2] was 100% and the inhibition [3] was 43%. It also gave an inhibition [4] of 7%, an inhibition [5] of -2% and an inhibition [6] of 0%. It also gave an inhibition [7] of -1%, an inhibition [8] of 9% and an inhibition [9] of -8%. It also gave an inhibition [10] of 0%, an inhibition [11] of 12% and an inhibition [12] of 2%. The inhibition [13] was 3%, the inhibition [14] was 26% and the inhibition [15] was 107%. For the same compound, the inhibition [16] was 89%, the inhibition [17] was 5% and the inhibition [18] was 6%. The inhibition [19] was 23%, the inhibition [20] was -7% and the inhibition [21] was 81%. The inhibition [22] was 13%, the inhibition [23] was 90% and the inhibition [24] was 4%. It also gave an inhibition [25] of 34%, an IC50 [26] of 15.3 nM and a fAUC [27] of 14.87 ng·h/g. For the same compound, the ILS at 12.5 mg/kg [28] was 48%, the ILS at 25 mg/kg [29] was 103% and the inhibition [30] was 5%.
